Assay results: PMC7027461 (Clinical Pharmacology in Drug Development, 2020)
Several values for one entry are separate records, joined by “and”; a condition that tells them apart may be missing. Equal values may be shown once. Entries after “also recorded” stand apart in the source; their conditions may differ. Read-outs that look alike come from different tables or passages of the source.

Tests used:
[1] = parameters: method as in PMID 19738123; details: uncoated tablet formulation; cited from earlier work
[2] = BCS classification; no reference given; cited from earlier work
cytochrome P450 3A = details: cited from earlier work
[3] = parameters: method as in data on file, Daiichi Sankyo, Inc; details: subjects with AML; ref data on file, Daiichi Sankyo, Inc; cited from earlier work
[4] = Safety assessments (AEs, ECG/QTcF, vital signs, laboratory tests) in the food-effect study; type: in vivo, human
Experimental: All randomized subjects who received quizartinib were included in the safety analysis population. Safety assessments included physical examinations, vital signs, 12‐lead ECGs, adverse event (AE) evaluations, and clinical laboratory tests. Hematology, chemistry, serology, and urinalysis tests were performed by a local laboratory. AEs and laboratory tests were graded and summarized based on National Cancer Institute Common Terminology Criteria for Adverse Events version 4.03 and assessed for severity, relation to study drugs, and clinical significance.

[5] = parameters: method as in data on file, Daiichi Sankyo, Inc; details: ref data on file, Daiichi Sankyo, Inc; cited from earlier work
[6] = prior knowledge used for the study design and sampling duration; no reference given; cited from earlier work
[7] = parameters: method as in ref 29 = [29]; 29 U.S. Food and Drug Administration . Application Number: 211349Orig1s000; Multi‐Discipline Review. https://www.accessdata.fda.gov/drugsatfda_docs/nda/2018/211349Orig1s000MultidisciplineR.pdf . Publi; details: single 40‐mg tablet; cited from earlier work
[8] = parameters: method as in ref 23 = [23]; 23 U.S. Food and Drug Administration . Application Number: 207997Orig1s000; 207997Orig2s000. Clinical Pharmacology and Biopharmaceutics Review(s). Available at: https://www.accessdata.fda.gov/drugsatf; details: single 50‐mg dose, cited from earlier work

Compound: CC1(COc2ccc3c(c2)ncn3-c2ccc3cccc(N4CCC(N)CC4)c3n2)COC1 [crenolanib]
- effect of food on interpatient variability of Cmax and AUCinf [1]: increased
- effect of food on terminal half‐life [1]: no effects
- effect of food on tmax [1]: delays

Compound: CC(C)(C)c1cc(NC(=O)Nc2ccc(-c3cn4c(n3)sc3cc(OCCN5CCOCC5)ccc34)cc2)no1.Cl.Cl [quizartinib, N‐(5‐tert‐butyl‐isoxazol‐3‐yl)‐N′‐{4‐[7‐(2‐morpholin‐4‐yl‐ethoxy)imidazo[2,1‐b][1,3]benzothiazol‐2‐yl]phenyl}urea dihydrochloride]
- permeability [2]: low
- solubility [2]: low
- cytochrome P450 3A substrate status (cytochrome P450 3A): substrate
- effective half‐life [3]: 73 h
- tolerability ([4]; 30‐mg single dose, fed and fasted healthy subjects): safe and well tolerated
- subjects with maximum QTcF ≤450 milliseconds ([4]; all subjects (N = 64)): 64 (100%) n (%)
- subjects with maximum change from baseline QTcF ≤30 milliseconds ([4]; all subjects (N = 64)): 98.4%
- Number of TEAEs ([4]; fasted (n = 34)): 16
- Number of treatment‐related AEs ([4]; fasted (n = 34)): 6
- Subjects with a treatment‐related AE, n (%) ([4]; fasted (n = 34)): 4 (11.8%) n (%) and 4 (11.8) n (%)
- Subjects with any TEAE by maximum severity: Mild, n (%) ([4]; fasted (n = 34)): 7 (20.6) n (%)
- Subjects with any TEAE by maximum severity: Moderate, n (%) ([4]; fasted (n = 34)): 1 (2.9) n (%)
- Subjects with any TEAE by maximum severity: Severe, n (%) ([4]; fasted (n = 34)): 1 (2.9) n (%)
- Subjects with a TEAE, n (%) ([4]; fasted (n = 34), single 30-mg dose): 9 (26.5%) n (%) and 9 (26.5) n (%)
- Number of TEAEs ([4]; fed (n = 30)): 7
- Number of treatment‐related AEs ([4]; fed (n = 30)): 4
- Subjects with a treatment‐related AE, n (%) ([4]; fed (n = 30)): 2 (6.7%) n (%) and 2 (6.7) n (%)
- Subjects with any TEAE by maximum severity: Mild, n (%) ([4]; fed (n = 30)): 5 (16.7) n (%)
- Subjects with any TEAE by maximum severity: Moderate, n (%) ([4]; fed (n = 30)): 0 n (%)
- Subjects with any TEAE by maximum severity: Severe, n (%) ([4]; fed (n = 30)): 0 n (%)
- Subjects with a TEAE, n (%) ([4]; fed (n = 30), single 30-mg dose): 5 (16.7%) n (%) and 5 (16.7) n (%)
- Number of TEAEs ([4]; overall (N = 64)): 23
- Number of treatment‐related AEs ([4]; overall (N = 64)): 10
- Subjects with a treatment‐related AE, n (%) ([4]; overall (N = 64)): 6 (9.4%) n (%) and 6 (9.4) n (%)
- Subjects with any TEAE by maximum severity: Mild, n (%) ([4]; overall (N = 64)): 12 (18.8) n (%)
- Subjects with any TEAE by maximum severity: Moderate, n (%) ([4]; overall (N = 64)): 1 (1.6) n (%)
- Subjects with any TEAE by maximum severity: Severe, n (%) ([4]; overall (N = 64)): 1 (1.6) n (%)
- Subjects with a TEAE, n (%) ([4]; overall (N = 64), single 30-mg dose): 14 (21.9) n (%)
- serious AEs or discontinuations due to AEs ([4]; single 30-mg dose, fed and fasted): no discontinuations due to adverse events occurred; also recorded: no serious AEs or discontinuations due to AEs
- subjects with maximum change from baseline QTcF >30 milliseconds and ≤60 milliseconds ([4]; subject in the fasted group, percentage of N = 64): 1 (1.6%) n (%)
- Plasma protein binding [5]: > 99%
- terminal elimination half‐life (t1/2) [6]: approximately 100 hours

Compound: CCc1nc(C(N)=O)c(Nc2ccc(N3CCC(N4CCN(C)CC4)CC3)c(OC)c2)nc1NC1CCOCC1 [gilteritinib]
- decrease in AUC with a high‐fat meal vs the fasted state [7]: < 10%
- decrease in Cmax with a high‐fat meal vs the fasted state [7]: 26%
- delay in median tmax with a high‐fat meal [7]: 2 h

Compound: CO[C@@H]1[C@H](N(C)C(=O)c2ccccc2)C[C@H]2O[C@]1(C)n1c3ccccc3c3c4c(c5c6ccccc6n2c5c31)C(=O)NC4 [midostaurin]
- increase in exposure with food ([8]; high‐fat meal (900–1000 calories, 50% fat content)): 1.6 fold
- increase in exposure with food ([8]; standard meal (450 calories, 25% fat content)): 1.2 fold
